{
  "source": "patent US7368578B2",
  "about": "“Five-membered heterocyclic compounds” (Takeda Pharmaceutical Company Limited, priority 2002, dated 2008)",
  "data": [
    {"units": {"melting point": "°C"}, "values": [
      {"compound": "CCCc1noc(/C=C/c2cn(-c3ccccc3)nc2OCc2ccc(OCc3nc(-c4ccco4)oc3C)c(OC)c2)n1", "note": "[Example 124, 5-((E)-2-{3-[(4-{[2-(2-furyl)-5-methyl-1,3-oxazol-4-yl]methoxy}-3-methoxybenzyl)oxy]-1-phenyl-1H-pyrazol-4-yl}ethenyl)-3-propyl-1,2,4-oxadiazole]", "melting point": "192 to 193"},
      {"compound": "COc1cc(COc2nn(-c3ccccc3)cc2/C=C/c2nnc(C)o2)ccc1OCc1nc(-c2ccco2)oc1C", "note": "[Example 125, 2-((E)-2-{3-[(4-{[2-(2-furyl)-5-methyl-1,3-oxazol-4-yl]methoxy}-3-methoxybenzyl)oxy]-1-phenyl-1H-pyrazol-4-yl}ethenyl)-5-methyl-1,3,4-oxadiazole]", "melting point": "186 to 187"},
      {"compound": "CCc1nnc(/C=C/c2cn(-c3ccccc3)nc2OCc2ccc(OCc3nc(-c4ccco4)oc3C)c(OC)c2)o1", "note": "[Example 126, 2-ethyl-5-((E)-2-{3-[(4-{[2-(2-furyl)-5-methyl-1,3-oxazol-4-yl]methoxy}-3-methoxybenzyl)oxy]-1-phenyl-1H-pyrazol-4-yl}ethenyl)-1,3,4-oxadiazole]", "melting point": "183 to 184"},
      {"compound": "CCCc1nnc(/C=C/c2cn(-c3ccccc3)nc2OCc2ccc(OCc3nc(-c4ccco4)oc3C)c(OC)c2)o1", "note": "[Example 127, 2-((E)-2-{3-[(4-{[2-(2-furyl)-5-methyl-1,3-oxazol-4-yl]methoxy}-3-methoxybenzyl)oxy]-1-phenyl-1H-pyrazol-4-yl}ethenyl)-5-propyl-1,3,4-oxadiazole]", "melting point": "165 to 166"},
      {"compound": "COc1cc(COc2nn(-c3ccccc3)cc2/C=C/[S+](C)[O-])ccc1OCc1nc(-c2ccco2)oc1C", "note": "(stereo not shown) [Example 128 (E form), 2-(2-furyl)-4-({2-methoxy-4-[({4-[(E)-2-(methylsulfinyl)ethenyl]-1-phenyl-1H-pyrazol-3-yl}oxy)methyl]phenoxy}methyl)-5-methyl-1,3-oxazole]", "melting point": "156 to 157"},
      {"compound": "COc1cc(COc2nn(-c3ccccc3)cc2/C=C\\[S+](C)[O-])ccc1OCc1nc(-c2ccco2)oc1C", "note": "(stereo not shown) [Example 128 (Z form), 2-(2-furyl)-4-({2-methoxy-4-[({4-[(Z)-2-(methylsulfinyl)ethenyl]-1-phenyl-1H-pyrazol-3-yl}oxy)methyl]phenoxy}methyl)-5-methyl-1,3-oxazole]", "melting point": "180 to 181"},
      {"compound": "COc1cc(COc2nn(-c3ccccc3)cc2/C=C/S(C)(=O)=O)ccc1OCc1nc(-c2ccco2)oc1C", "note": "[Example 130, 2-(2-furyl)-4-({2-methoxy-4-[({4-[(E)-2-(methylsulfonyl)ethenyl]-1-phenyl-1H-pyrazol-3-yl}oxy)methyl]phenoxy}methyl)-5-methyl-1,3-oxazole]", "melting point": "152 to 153"},
      {"compound": "COc1cc(COc2nn(-c3ccccc3)cc2/C=C\\S(C)(=O)=O)ccc1OCc1nc(-c2ccco2)oc1C", "note": "[Example 131, 2-(2-furyl)-4-({2-methoxy-4-[({4-[(Z)-2-(methylsulfonyl)ethenyl]-1-phenyl-1H-pyrazol-3-yl}oxy)methyl]phenoxy}methyl)-5-methyl-1,3-oxazole]", "melting point": "158 to 159"},
      {"compound": "CCCc1nnc(/C=C/c2cn(Cc3ccccc3)nc2OCc2ccc(OCc3nc(-c4ccco4)oc3C)c(OC)c2)o1", "note": "[Example 132, 2-((E)-2-{1-benzyl-3-[(4-{[2-(2-furyl)-5-methyl-1,3-oxazol-4-yl]methoxy}-3-methoxybenzyl)oxy]-1H-pyrazol-4-yl}ethenyl)-5-propyl-1,3,4-oxadiazole]", "melting point": "146 to 147"},
      {"compound": "CCCc1nnc(/C=C/c2nc(-c3ccccc3)oc2COc2ccc(OCc3nc(-c4ccccc4)oc3C)cc2)o1", "note": "[Example 133, 2-{(E)-2-[5-({4-[(5-methyl-2-phenyl-1,3-oxazol-4-yl)methoxy]phenoxy}methyl)-2-phenyl-1,3-oxazol-4-yl]ethenyl}-5-propyl-1,3,4-oxadiazole]", "melting point": "119 to 120"},
      {"compound": "CCOC(=O)/C=C/c1cc(OCc2ccc(OCc3nc(-c4ccco4)oc3C)c(OC)c2)nn1-c1ccccc1", "note": "[Example 135, ethyl (2E)-3-{3-[(4-{[2-(2-furyl)-5-methyl-1,3-oxazol-4-yl]methoxy}-3-methoxybenzyl)oxy]-1-phenyl-1H-pyrazol-5-yl}-2-propenoate]", "melting point": "127 to 128"},
      {"compound": "COc1cc(COc2cc(/C=C/C(=O)O)n(-c3ccccc3)n2)ccc1OCc1nc(-c2ccco2)oc1C", "note": "[Example 136, (2E)-3-{3-[(4-{[2-(2-furyl)-5-methyl-1,3-oxazol-4-yl]methoxy}-3-methoxybenzyl)oxy]-1-phenyl-1H-pyrazol-5-yl}-2-propenoic acid]", "melting point": "191 to 192"},
      {"compound": "CCCc1nnc(/C=C/c2cc(OCc3ccc(OCc4nc(-c5ccco5)oc4C)c(OC)c3)nn2-c2ccccc2)o1", "note": "[Example 138, 2-((E)-2-{3-[(4-{[2-(2-furyl)-5-methyl-1,3-oxazol-4-yl]methoxy}-3-methoxybenzyl)oxy]-1-phenyl-1H-pyrazol-5-yl}ethenyl)-5-propyl-1,3,4-oxadiazole]", "melting point": "107 to 108"},
      {"compound": "COc1cc(COc2cc(/C=C/c3cscn3)n(-c3ccccc3)n2)ccc1OCc1nc(-c2ccco2)oc1C", "note": "[Example 139, 2-(2-furyl)-4-({2-methoxy-4-[({1-phenyl-5-[(E)-2-(1,3-thiazol-4-yl)ethenyl]-1H-pyrazol-3-yl}oxy)methyl]phenoxy}methyl)-5-methyl-1,3-oxazole]", "melting point": "154 to 155"},
      {"compound": "COc1cc(COc2cc(/C=C/c3ccccn3)n(-c3ccccc3)n2)ccc1OCc1nc(-c2ccco2)oc1C", "note": "[Example 140, 2-((E)-2-{3-[(4-{[2-(2-furyl)-5-methyl-1,3-oxazol-4-yl]methoxy}-3-methoxybenzyl)oxy]-1-phenyl-1H-pyrazol-5-yl}ethenyl)pyridine]", "melting point": "122 to 123"},
      {"compound": "COc1cc(COc2cc(CCc3ccccn3)n(-c3ccccc3)n2)ccc1OCc1nc(-c2ccco2)oc1C", "note": "[Example 141, 2-(2-{3-[(4-{[2-(2-furyl)-5-methyl-1,3-oxazol-4-yl]methoxy}-3-methoxybenzyl)oxy]-1-phenyl-1H-pyrazol-5-yl}ethyl)pyridine]", "melting point": "104 to 105"},
      {"compound": "COc1cc(COc2cc(Cn3cncn3)n(-c3ccccc3)n2)ccc1OCc1nc(-c2ccco2)oc1C", "note": "[Example 143, 1-({3-[(4-{[2-(2-furyl)-5-methyl-1,3-oxazol-4-yl]methoxy}-3-methoxybenzyl)oxy]-1-phenyl-1H-pyrazol-5-yl}methyl)-1H-1,2,4-triazole]", "melting point": "95 to 96"},
      {"compound": "COc1cc(COc2nn(-c3ccccc3)cc2/C=C\\c2csc(C)n2)ccc1OCc1nc(-c2ccco2)oc1C", "note": "[Example 150 (Z form), 2-(2-furyl)-4-({2-methoxy-4-[({4-[(Z)-2-(2-methyl-1,3-thiazol-4-yl)ethenyl]-1-phenyl-1H-pyrazol-3-yl}oxy)methyl]phenoxy}methyl)-5-methyl-1,3-oxazole]", "melting point": "164 to 165"},
      {"compound": "CCc1nc(/C=C/c2cn(-c3ccccc3)nc2OCc2ccc(OCc3nc(-c4ccco4)oc3C)c(OC)c2)cs1", "note": "[Example 152 (E form), 4-({4-[({4-[(E)-2-(2-ethyl-1,3-thiazol-4-yl)ethenyl]-1-phenyl-1H-pyrazol-3-yl}oxy)methyl]-2-methoxyphenoxy}methyl)-2-(2-furyl)-5-methyl-1,3-oxazole]", "melting point": "108 to 109"},
      {"compound": "CCc1nc(/C=C\\c2cn(-c3ccccc3)nc2OCc2ccc(OCc3nc(-c4ccco4)oc3C)c(OC)c2)cs1", "note": "[Example 152 (Z form), 4-({4-[({4-[(Z)-2-(2-ethyl-1,3-thiazol-4-yl)ethenyl]-1-phenyl-1H-pyrazol-3-yl}oxy)methyl]-2-methoxyphenoxy}methyl)-2-(2-furyl)-5-methyl-1,3-oxazole]", "melting point": "132 to 133"},
      {"compound": "CCOc1cc(COc2nn(-c3ccccc3)cc2C=O)ccc1OCc1nc(-c2ccco2)oc1C", "note": "[Example 154, 3-[(3-ethoxy-4-{[2-(2-furyl)-5-methyl-1,3-oxazol-4-yl]methoxy}benzyl)oxy]-1-phenyl-1H-pyrazole-4-carbaldehyde]", "melting point": "149 to 150"},
      {"compound": "COc1cc(COc2nn(-c3ccccc3)cc2/C=C/C(C)=O)ccc1OCc1nc(-c2ccco2)oc1C", "note": "[Example 155, (3E)-4-{3-[(4-{[2-(2-furyl)-5-methyl-1,3-oxazol-4-yl]methoxy}-3-methoxybenzyl)oxy]-1-phenyl-1H-pyrazol-4-yl}-3-buten-2-one]", "melting point": "177 to 178"},
      {"compound": "CCCC(=O)/C=C/c1cn(-c2ccccc2)nc1OCc1ccc(OCc2nc(-c3ccco3)oc2C)c(OC)c1", "note": "[Example 157, (1E)-1-{3-[(4-{[2-(2-furyl)-5-methyl-1,3-oxazol-4-yl]methoxy}-3-methoxybenzyl)oxy]-1-phenyl-1H-pyrazol-4-yl}-1-hexen-3-one]", "melting point": "167 to 168"},
      {"compound": "COc1cc(COc2nn(-c3ccccc3)cc2/C=C/P(=O)(O)O)ccc1OCc1nc(-c2ccco2)oc1C", "note": "[Example 158, (E)-2-{3-[(4-{[2-(2-furyl)-5-methyl-1,3-oxazol-4-yl]methoxy}-3-methoxybenzyl)oxy]-1-phenyl-1H-pyrazol-4-yl}ethenylphosphonic acid]", "melting point": "138 to 140"},
      {"compound": "COc1cc(COc2nn(-c3ccccc3)cc2/C=C/C(=O)N(C)OC)ccc1OCc1nc(-c2ccco2)oc1C", "note": "[Example 162, (2E)-3-{3-[(4-{[2-(2-furyl)-5-methyl-1,3-oxazol-4-yl]methoxy}-3-methoxybenzyl)oxy]-1-phenyl-1H-pyrazol-4-yl}-N-methoxy-N-methyl-2-propenamide]", "melting point": "173 to 174"},
      {"compound": "COC(=O)c1cc(COc2nn(-c3ccccc3)cc2C=O)ccc1OCc1nc(-c2ccco2)oc1C", "note": "[Example 163, methyl 5-{[(4-formyl-1-phenyl-1H-pyrazol-3-yl)oxy]methyl}-2-{[2-(2-furyl)-5-methyl-1,3-oxazol-4-yl]methoxy}benzoate]", "melting point": "173 to 174"},
      {"compound": "Cc1oc(-c2ccco2)nc1COc1ccc(COc2nn(-c3ccccc3)cc2C=O)cn1", "note": "[Example 164, 3-[(6-{[2-(2-furyl)-5-methyl-1,3-oxazol-4-yl]methoxy}pyridin-3-yl)methoxy]-1-phenyl-1H-pyrazole-4-carbaldehyde]", "melting point": "122 to 123"},
      {"compound": "CCOC(=O)/C=C/c1cn(C)nc1OCc1ccc(OCc2nc(-c3ccco3)oc2C)c(OC)c1", "note": "[Example 165, ethyl (2E)-3-{3-[(4-([2-(2-furyl)-5-methyl-1,3-oxazol-4-yl]methoxy}-3-methoxybenzyl)oxy]-1-methyl-1H-pyrazol-4-yl)-2-propenoate]", "melting point": "135 to 136"}
    ]}
  ]
}
